{"source": "the PolyMetriX glass transition set", "note": "± gives the standard deviation of the reports.", "data": [{"units": {"glass transition temperature": "°C"}, "values": [{"smiles": "*Oc1cccc(OC(=O)CCC(*)=O)c1", "note": "(repeat unit)", "glass transition temperature": 38.20}, {"smiles": "*C(=O)OCCN(CCOC(=O)c1ccc2c(c1)C(=O)N(c1cccc(N3C(=O)c4ccc(*)cc4C3=O)c1)C2=O)c1ccc(/N=N/c2ccc([N+](=O)[O-])cc2)cc1", "note": "(repeat unit)", "glass transition temperature": 210.00}, {"smiles": "*c1ccc(Oc2ccc(-c3cc(OCCCCCC)c(-c4ccc(Oc5ccc(-c6nnc(*)o6)cc5)cc4)cc3OCCCCCC)cc2)cc1", "note": "(repeat unit)", "glass transition temperature": 103.00}, {"smiles": "*C1C(*)C2CC1C(C(=O)OCCCc1ccccc1)C2C(=O)OCCCc1ccccc1", "note": "(repeat unit)", "glass transition temperature": 200.00}, {"smiles": "*c1ccc(-c2cnc3cc4nc(*)cnc4cc3n2)cc1", "note": "(repeat unit)", "glass transition temperature": 392.00}, {"smiles": "*Nc1ccc(C2(c3ccc(NC(=O)c4cc(NC(=O)C56CC7CC(CC(C7)C5)C6)cc(C(*)=O)c4)cc3)c3ccccc3-c3ccccc32)cc1", "note": "(repeat unit)", "glass transition temperature": 370.00}, {"smiles": "*OC(COC(*)=O)COc1ccccc1", "note": "(repeat unit)", "glass transition temperature": 45.00}, {"smiles": "*c1ccc(Cc2ccc(N3C(=O)c4ccc(-c5ccc6c(c5)C(=O)N(*)C6=O)cc4C3=O)cc2)cc1", "note": "(repeat unit)", "glass transition temperature": "308.00 ± 6.8"}, {"smiles": "*c1cccc(N2C(=O)c3ccc(Oc4ccc5cc(Oc6ccc7c(c6)C(=O)N(*)C7=O)ccc5c4)cc3C2=O)c1", "note": "(repeat unit)", "glass transition temperature": 230.00}, {"smiles": "*Oc1ccc(/N=C/C=N/c2ccc(OC(=O)Nc3cc(NC(*)=O)ccc3C)cc2)cc1", "note": "(repeat unit)", "glass transition temperature": 76.00}, {"smiles": "*CC(*)OC(=O)CC(C)(C)c1ccccc1", "note": "(repeat unit)", "glass transition temperature": 20.00}, {"smiles": "*c1cccc(C(=O)Nc2ccc(Oc3ccc(Oc4ccc(NC(=O)c5cccc(N6C(=O)c7ccc(-c8cccc9c8C(=O)N(*)C9=O)cc7C6=O)c5)cc4)cc3)cc2)c1", "note": "(repeat unit)", "glass transition temperature": 268.00}, {"smiles": "*Oc1ccc(Oc2ccc(Nc3ccc(S(=O)(=O)c4ccc(Nc5ccc(*)cc5)cc4)cc3)cc2)cc1", "note": "(repeat unit)", "glass transition temperature": 144.60}, {"smiles": "*c1cc(C(c2ccc(OCCN(C)c3ccc(/C=C/C4=CC(=C(/C#N)C(=O)OCc5ccc(Oc6c(F)c(F)c(F)c(F)c6F)cc5)/CC(C)(C)C4)cc3)c(N3C(=O)c4ccc(Oc5ccc6c(c5)C(=O)N(*)C6=O)cc4C3=O)c2)(C(F)(F)F)C(F)(F)F)ccc1OCCN(c1ccccc1)c1ccc(/C=C/C2=CC(=C(/C#N)C(=O)OCc3ccc(Oc4c(F)c(F)c(F)c(F)c4F)cc3)/CC(C)(C)C2)cc1", "note": "(repeat unit)", "glass transition temperature": 162.00}, {"smiles": "*/C(Cl)=C(/*)c1ccccc1", "note": "(repeat unit)", "glass transition temperature": 215.00}, {"smiles": "*CC(*)C[Si](C)(C)C", "note": "(repeat unit)", "glass transition temperature": 114.00}, {"smiles": "*Oc1ccc(NC(=C(C#N)C#N)c2ccc(C(Nc3ccc(*)cc3)=C(C#N)C#N)cc2)cc1", "note": "(repeat unit)", "glass transition temperature": 274.00}, {"smiles": "*Nc1ccc(NC(=O)c2ccc(C(=O)c3ccc(C(*)=O)c(C(=O)OCC)c3)cc2C(=O)OCC)cc1", "note": "(repeat unit)", "glass transition temperature": 275.00}, {"smiles": "*Oc1ccc(C(C)(C)c2ccc(OC(=O)c3ccccc3-c3ccccc3C(*)=O)cc2)cc1", "note": "(repeat unit)", "glass transition temperature": 161.00}, {"smiles": "*Oc1c(Cl)cc(C2(c3cc(Cl)c(OC(*)=O)c(Cl)c3)CC3CC2C2CCCC32)cc1Cl", "note": "(repeat unit)", "glass transition temperature": 281.00}, {"smiles": "*C1=C(c2ccc(-c3ccc4c(c3)C(CCCCCC)(CCCCCC)c3cc(-c5ccc(*)cc5)ccc3-4)cc2)C(=O)N(CCCC)C1=O", "note": "(repeat unit)", "glass transition temperature": 155.00}, {"smiles": "*CC1CCC(COC(=O)c2cccc(C(=O)O*)c2)CC1", "note": "(repeat unit)", "glass transition temperature": 70.00}, {"smiles": "*/C=C/C1CC(*)C(C(=O)Oc2ccccc2)C1C(=O)Oc1ccccc1", "note": "(repeat unit)", "glass transition temperature": 96.50}, {"smiles": "*CC(*)C(C)C", "note": "(repeat unit) [Poly(isopropylethylene)]", "glass transition temperature": "49 ± 18"}, {"smiles": "*c1ccc(Oc2ccc(Oc3ccc(N4C(=O)c5ccc(Oc6ccccc6Oc6ccc7c(c6)C(=O)N(*)C7=O)cc5C4=O)cc3)cc2)cc1", "note": "(repeat unit)", "glass transition temperature": 202.00}, {"smiles": "*CC(*)C(=O)OCCCCCOC(=O)c1ccc(OC(=O)c2ccc(C#N)cc2)cc1", "note": "(repeat unit)", "glass transition temperature": 30.00}, {"smiles": "*c1ccc(Oc2ccc(C(c3ccc(Oc4ccc(N5C(=O)c6ccc(Oc7c(C)cc(C(C)(C)c8cc(C)c(Oc9ccc%10c(c9)C(=O)N(*)C%10=O)c(C)c8)cc7C)cc6C5=O)cc4)cc3)(C(F)(F)F)C(F)(F)F)cc2)cc1", "note": "(repeat unit)", "glass transition temperature": 244.00}, {"smiles": "*c1ccc(C(=O)OCCCCCCOc2ccc(/C=C3\\CCCC/C(=C\\c4ccc(OCCCCCCOC(=O)c5ccc(-c6nnc(*)o6)cc5)cc4)C3=O)cc2)cc1", "note": "(repeat unit)", "glass transition temperature": 104.00}, {"smiles": "*Oc1ccc(C(C)(C)c2cccc(C(C)(C)c3ccc(Oc4ccc(C(=O)Nc5ccc(NC(=O)c6ccc(*)cc6)cc5)cc4)cc3)c2)cc1", "note": "(repeat unit)", "glass transition temperature": 154.00}, {"smiles": "*c1ccc(NC(=O)c2ccc(OCCOCCOCCOCCOCCOc3ccc(C(=O)Nc4ccc5[nH]c(*)nc5c4)cc3)cc2)cc1", "note": "(repeat unit)", "glass transition temperature": 125.00}, {"smiles": "*CCCCOCCCCOCCCCOC(=O)c1ccc(/N=C/c2cc(OCCC(C)CCCC(C)C)c(/C=N/c3ccc(C(=O)O*)cc3)cc2OCCC(C)CCCC(C)C)cc1", "note": "(repeat unit)", "glass transition temperature": -4.80}, {"smiles": "*C(=O)Nc1nc(NC(=O)c2ccc3c(c2)C(=O)N(c2ccc(Oc4cccc5c(N6C(=O)c7ccc(*)cc7C6=O)cccc45)cc2)C3=O)nc(-c2ccccc2)n1", "note": "(repeat unit)", "glass transition temperature": 291.00}, {"smiles": "*CC(c1ccccc1)C1C(=O)N(C(C)(C)C)C(=O)C1*", "note": "(repeat unit)", "glass transition temperature": 178.00}, {"smiles": "*Nc1ccc(C(C)(C)c2cccc(C(C)(C)c3ccc(NC(=C(C#N)C#N)c4ccc(C(*)=C(C#N)C#N)cc4)cc3)c2)cc1", "note": "(repeat unit)", "glass transition temperature": 208.00}, {"smiles": "*C(=O)Nc1ccc(Oc2ccc(C(=O)c3ccc(Oc4ccc(NC(=O)c5ccc(*)nc5)cc4)cc3)cc2)cc1", "note": "(repeat unit)", "glass transition temperature": 170.00}, {"smiles": "*c1ccc(OCCN(CC)c2ccc(C(C#N)=C(C#N)C#N)cc2)c(-c2cc(-c3ccccc3)c3cc(Oc4ccc5nc(*)cc(-c6ccccc6)c5c4)ccc3n2)c1", "note": "(repeat unit)", "glass transition temperature": 200.00}, {"smiles": "*c1ccc(-c2ccc3c(c2)C(CCCCCCCC)(CCCCCCCC)c2cc(*)ccc2-3)c(F)c1", "note": "(repeat unit)", "glass transition temperature": 34.00}, {"smiles": "*CC(OCC)C1C(=O)OC(=O)C1*", "note": "(repeat unit)", "glass transition temperature": 146.00}, {"smiles": "*c1ccc(NC(=O)c2cc(C(=O)Nc3ccc(-c4nnc(*)o4)cc3)cc(N3C(=O)c4ccccc4C3=O)c2)cc1", "note": "(repeat unit)", "glass transition temperature": 327.00}, {"smiles": "*CCCCSSCCCCO*", "note": "(repeat unit)", "glass transition temperature": -76.00}, {"smiles": "*Cc1ccc(CNC(=O)CCCCCCCCCCCC(=O)N*)cc1", "note": "(repeat unit)", "glass transition temperature": 100.00}, {"smiles": "*c1ccc(-c2nnc(*)o2)c(OCCCCCCCC)c1", "note": "(repeat unit)", "glass transition temperature": 173.00}, {"smiles": "*C(=O)c1ccc2c(c1)C(=O)N(c1cccc(Cc3ccc(Cc4cccc(N5C(=O)c6ccc(*)cc6C5=O)c4)cc3)c1)C2=O", "note": "(repeat unit)", "glass transition temperature": 240.00}, {"smiles": "*Oc1ccc(C2(c3ccc(Oc4ccc(C(=O)c5ccc(*)cc5)cc4)c(C)c3)CCC3CCCCC3C2)cc1C", "note": "(repeat unit)", "glass transition temperature": 201.00}, {"smiles": "*CCCCCCCCCCCOC(=O)c1cc(OCCCCCCCCCCOc2ccc(/N=N/c3ccc(OC)cc3)cc2)cc(C(=O)OCCCCCCCCCCCOc2ccc(-c3ccc(O*)cc3)cc2)c1", "note": "(repeat unit)", "glass transition temperature": 53.00}, {"smiles": "*CC(*)OC(=O)C(F)(F)C(F)(F)F", "note": "(repeat unit)", "glass transition temperature": 42.00}, {"smiles": "*C(=O)Nc1cc(NC(=O)c2ccc3[nH]c(-c4cccc(-c5nc6cc(*)ccc6[nH]5)c4)nc3c2)cc(-c2nc3ccccc3[nH]2)c1", "note": "(repeat unit)", "glass transition temperature": 315.00}, {"smiles": "*CCCN(*)C(=O)C(F)(F)C(F)(F)C(F)(F)C(F)(F)C(F)(F)C(F)(F)C(F)(F)F", "note": "(repeat unit)", "glass transition temperature": 25.00}, {"smiles": "*c1ccc(Oc2ccc(C(=O)c3ccc(Oc4ccc(-c5c6c(c(*)c7ccccc57)C(=O)N(c5cccc(C(F)(F)F)c5)C6=O)cc4)cc3)cc2)cc1", "note": "(repeat unit)", "glass transition temperature": 252.00}, {"smiles": "*Oc1ccc(C(C)(C)c2ccc(Oc3ccc(C(=O)c4ccc(C(C)(C)c5ccc(C(=O)c6ccc(*)cc6)cc5)cc4)cc3)cc2)cc1", "note": "(repeat unit)", "glass transition temperature": 171.00}, {"smiles": "*CC(*)(C)C(=O)OCCCCCCOc1ccc(-c2ccc(C#N)cc2)cc1", "note": "(repeat unit)", "glass transition temperature": 63.00}, {"smiles": "*Oc1ccc(Cc2ccc(OC(=O)CCCCC(*)=O)cc2)cc1", "note": "(repeat unit)", "glass transition temperature": 60.50}, {"smiles": "*Oc1ccc(S(=O)(=O)c2ccc(Oc3ccc(/C=C/c4ccc(*)cc4)cc3)cc2)cc1", "note": "(repeat unit)", "glass transition temperature": 234.50}, {"smiles": "*CC(*)C(=O)OC(C)C", "note": "(repeat unit)", "glass transition temperature": -5.00}, {"smiles": "*C1CCC(CC2CCC(N3C(=O)C4C5C=CC(C6C(=O)N(*)C(=O)C56)C4C3=O)CC2)CC1", "note": "(repeat unit)", "glass transition temperature": 239.00}, {"smiles": "*Cc1ccc(CSS*)cc1", "note": "(repeat unit)", "glass transition temperature": 23.00}, {"smiles": "*CC(O)COC(=O)c1cccc(C(=O)OCC(O)COc2ccc(C(C)(C)c3ccc(O*)cc3)cc2)c1", "note": "(repeat unit)", "glass transition temperature": 97.00}, {"smiles": "*Oc1ccc(-c2ccc(Oc3ccc(C(=O)c4ccc(*)c(S(=O)(=O)O)c4)cc3S(=O)(=O)O)cc2)cc1", "note": "(repeat unit)", "glass transition temperature": 225.00}, {"smiles": "*O[Si](*)(C)CCCCCCOc1ccc(-c2ccc(C#N)cc2)cc1", "note": "(repeat unit)", "glass transition temperature": 10.00}, {"smiles": "*Oc1ccc(S(=O)(=O)c2ccc(Oc3ccc(/C=N/c4ccc(Oc5ccc(-c6ccc(Oc7ccc(/N=C/c8ccc(*)cc8)cc7)cc6)cc5)cc4)cc3)cc2)cc1", "note": "(repeat unit)", "glass transition temperature": 127.00}, {"smiles": "*CCCCCCN1C(=O)C(=O)N(c2ccc(Oc3ccc(N4C(=O)C(=O)N(*)C4=O)cc3)cc2)C1=O", "note": "(repeat unit)", "glass transition temperature": 172.00}, {"smiles": "*OC(=O)Oc1ccc2c(c1)Oc1cc(*)ccc1C21c2ccccc2-c2ccccc21", "note": "(repeat unit)", "glass transition temperature": 295.00}, {"smiles": "*c1cccc(P(=O)(c2ccccc2)c2cccc(N3C(=O)c4ccc(Oc5ccc6c(c5)C(=O)N(*)C6=O)cc4C3=O)c2)c1", "note": "(repeat unit)", "glass transition temperature": 251.00}]}]}
